These results are taken from patent US20090291095A1, “NANOEMULSION ADJUVANTS” (The Regents of the University of Michigan, priority 2008, published 2009).

The experiment has as its system virus. Nature of the experiment: Virus inactivation by BCTP component. The following applies: concentrations equivalent to 11% BCTP.

With TRITON-X100, the “ability to inactivate a virus” value is listed as “less ability to inactivate a virus”.
